Patent US8871756B2 (Hoffmann-La Roche Inc., priority 2011, dated 2014)
Structures can show the parent of a compound that is named as a salt.

System: RSV Long strain
Assay: Viral cytopathic effect (CPE) assay, anti-RSV activity
Type: cell-based, Respiratory Syncytial Virus
Conditions: human respiratory syncytial virus, 144 h, RSV Long strain (ATCC); cell viability after 6 days, Cell Counting kit-8
Procedure, shortened: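 Cells (6×10^3/well, DMEM with 10% FBS) were infected next day with RSV Long strain, at a dose giving approximately 80–90% CPE, alongside serial half-log compound dilutions. Viability was read after 6 days by CCK-8 absorbance at 450 nm (reference 630 nm), and EC50 was derived from it.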

Row | EC50 | Compound
1 | 0.007 µM | Cc1ccc2nc(N3CCS(=O)(=O)c4ccccc4C3)cc(NCCNCCO)c2c1 [Example 3-42, 2-[(2-{[2-(1,1-Dioxido-2,3-dihydro-1,4-benzothiazepin-4(5H)-yl)-6-methylquinolin-4-yl]amino}ethyl)amino]ethanol]
2 | 2.39 µM | Cc1ccc2nc(N3CCS(=O)(=O)c4ccccc4C3)cc(NCC(F)(F)C(F)(F)CN)c2c1 [Example 3-43, N-[2-(1,1-Dioxido-2,3-dihydro-1,4-benzothiazepin-4(5H)-yl)-6-methylquinolin-4-yl]-2,2,3,3-tetrafluorobutane-1,4-diamine]
3 | 0.012 µM | COCCNCCNc1cc(N2CCS(=O)(=O)c3ccccc3C2)nc2ccc(C)cc12 [Example 3-44, N-[2-(1,1-Dioxido-2,3-dihydro-1,4-benzothiazepin-4(5H)-yl)-6-methylquinolin-4-yl]-N′-(2-methoxyethyl)ethane-1,2-diamine]
4 | 5.23 µM | Cc1ccc2nc(N3CCS(=O)(=O)c4ccccc4C3)cc(N3CCC(C)(O)C3)c2c1 (stereo not shown) [Example 3-45, 1-[2-(1,1-Dioxido-2,3-dihydro-1,4-benzothiazepin-4(5H)-yl)-6-methylquinolin-4-yl]-3-methylpyrrolidin-3-ol]
5 | 0.053 µM | NCCNc1cc(N2CCS(=O)(=O)c3ccccc3C2)nc2ccc(Cl)cc12 [Example 3-46, N-[6-Chloro-2-(1,1-dioxido-2,3-dihydro-1,4-benzothiazepin-4(5H)-yl)quinolin-4-yl]ethane-1,2-diamine]
6 | 0.101 µM | Cc1ccc2nc(N3CCS(=O)(=O)c4ccccc4C3)cc(NC3COC3)c2c1 [Example 3-47, 2-(1,1-Dioxido-2,3-dihydro-1,4-benzothiazepin-4(5H)-yl)-6-methyl-N-(oxetan-3-yl)quinolin-4-amine]
7 | 0.023 µM | NC1(CNc2cc(N3CCS(=O)(=O)c4ccccc4C3)nc3ccccc23)COC1 [Example 3-48, N-[(3-Aminooxetan-3-yl)methyl]-2-(1,1-dioxido-2,3-dihydro-1,4-benzothiazepin-4(5H)-yl)quinolin-4-amine]
8 | 0.099 µM | Cc1ccc2nc(N3CCS(=O)(=O)c4ccccc4C3)cc(N[C@@H]3CCOC3)c2c1 [Example 3-49, 2-(1,1-Dioxido-2,3-dihydro-1,4-benzothiazepin-4(5H)-yl)-6-methyl-N-[(3R)-tetrahydrofuran-3-yl]quinolin-4-amine]
9 | 0.0004 µM | Cc1ccc2nc(N3CCS(=O)(=O)c4ccccc4C3)cc(NCC3(CN)COC3)c2c1 [Example 3-50, N-{[3-(Aminomethyl)oxetan-3-yl]methyl}-2-(1,1-dioxido-2,3-dihydro-1,4-benzothiazepin-4(5H)-yl)-6-methylquinolin-4-amine]
10 | 0.004 µM | NCC1(CNc2cc(N3CCS(=O)(=O)c4ccccc4C3)nc3ccc(Cl)cc23)COC1 [Example 3-51, N-{[3-(Aminomethyl)oxetan-3-yl]methyl}-6-chloro-2-(1,1-dioxido-2,3-dihydro-1,4-benzothiazepin-4(5H)-yl)quinolin-4-amine]
11 | 0.005 µM | NCC1(CNc2cc(N3CCS(=O)(=O)c4ccccc4C3)nc3ccccc23)COC1 [Example 3-52, N-{[3-(Aminomethyl)oxetan-3-yl]methyl}-2-(1,1-dioxido-2,3-dihydro-1,4-benzothiazepin-4(5H)-yl)quinolin-4-amine]
12 | 0.261 µM | Cc1ccc2nc(N3CCS(=O)(=O)c4ccccc4C3)cc(NCC3COC3)c2c1 [Example 3-53, 2-(1,1-Dioxido-2,3-dihydro-1,4-benzothiazepin-4(5H)-yl)-6-methyl-N-(oxetan-3-ylmethyl)quinolin-4-amine]
13 | 0.114 µM | Cc1ccc2nc(N3CCS(=O)(=O)c4ccccc4C3)cc(NCC3(N)CCC3)c2c1 [Example 3-54, N-[(1-Aminocyclobutyl)methyl]-2-(1,1-dioxido-2,3-dihydro-1,4-benzothiazepin-4(5H)-yl)-6-methylquinolin-4-amine]
14 | 0.027 µM | Cc1ccc2nc(N3CCS(=O)(=O)c4ccccc4C3)cc(NCCCCCN)c2c1 [Example 3-55, N-[2-(1,1-Dioxido-2,3-dihydro-1,4-benzothiazepin-4(5H)-yl)-6-methylquinolin-4-yl]pentane-1,5-diamine]
15 | 0.716 µM | Cc1ccc2nc(N3CCS(=O)(=O)c4ccccc4C3)cc(NCCCCCCN)c2c1 [Example 3-56, N-[2-(1,1-Dioxido-2,3-dihydro-1,4-benzothiazepin-4(5H)-yl)-6-methylquinolin-4-yl]hexane-1,6-diamine]
16 | 7.53 µM | Cc1ccc2nc(N3CCS(=O)(=O)c4ccccc4C3)cc(NS(=O)(=O)C(F)(F)F)c2c1 [Example 3-57, N-[2-(1,1-Dioxido-2,3-dihydro-1,4-benzothiazepin-4(5H)-yl)-6-methylquinolin-4-yl]-1,1,1-trifluoromethanesulfonamide hydrochloride]

The next lines start with the compound.

Row | Compound | EC50
17 | Cc1cc2c(NCC3(N)COC3)cc(N3CCS(=O)(=O)c4ccccc4C3)nc2cc1F [Example 3-24, N-[(3-Aminooxetan-3-yl)methyl]-2-(1,1-dioxido-2,3-dihydro-1,4-benzothiazepin-4(5H)-yl)-7-fluoro-6-methylquinolin-4-amine] | 0.021 µM
18 | Cc1ccc2nc(N3CCS(=O)(=O)c4ccccc4C3)cc(NCC3(N)COC3)c2c1F [Example 3-25, N-[(3-Aminooxetan-3-yl)methyl]-2-(1,1-dioxido-2,3-dihydro-1,4-benzothiazepin-4(5H)-yl)-5-fluoro-6-methylquinolin-4-amine] | 0.022 µM
19 | CC(C)(N)CNc1cc(N2CCS(=O)(=O)c3ccccc3C2)nc2ccc(Cl)cc12 [Example 3-26, N^˜1^˜-[6-Chloro-2-(1,1-dioxido-2,3-dihydro-1,4-benzothiazepin-4(5H)-yl)quinolin-4-yl]-2-methylpropane-1,2-diamine] | 0.876 µM
20 | Cc1ccc2nc(N3CCS(=O)(=O)c4ccccc4C3)cc(NC3CCOCC3)c2c1 [Example 3-27, 2-(1,1-Dioxido-2,3-dihydro-1,4-benzothiazepin-4(5H)-yl)-6-methyl-N-(tetrahydro-2H-pyran-4-yl)quinolin-4-amine] | 1.39 µM
21 | Cc1ccc2nc(N3CCS(=O)(=O)c4ccccc4C3)cc(NCCN3CCNCC3)c2c1 [Example 3-28, 2-(1,1-Dioxido-2,3-dihydro-1,4-benzothiazepin-4(5H)-yl)-6-methyl-N-[2-(piperazin-1-yl)ethyl]quinolin-4-amine] | 0.149 µM
22 | Cc1ccc2nc(N3CCS(=O)(=O)c4ccccc4C3)cc(NCC3CCNCC3)c2c1 [Example 3-29, 2-(1,1-Dioxido-2,3-dihydro-1,4-benzothiazepin-4(5H)-yl)-6-methyl-N-(piperidin-4-ylmethyl)quinolin-4-amine] | 0.022 µM
23 | Cc1ccc2nc(N3CCS(=O)(=O)c4ccccc4C3)cc(NCCCCCCCN)c2c1 [Example 3-30, N-[2-(1,1-Dioxido-2,3-dihydro-1,4-benzothiazepin-4(5H)-yl)-6-methylquinolin-4-yl]heptane-1,7-diamine] | 7.81 µM
24 | CNCCNc1cc(N2CCS(=O)(=O)c3ccccc3C2)nc2ccc(C)cc12 [Example 3-31, N-[2-(1,1-Dioxido-2,3-dihydro-1,4-benzothiazepin-4(5H)-yl)-6-methylquinolin-4-yl]-N′-methylethane-1,2-diamine] | 0.014 µM
25 | Cc1ccc2nc(N3CCS(=O)(=O)c4ccccc4C3)cc(NCCN(C)C)c2c1 [Example 3-32, N′-[2-(1,1-Dioxido-2,3-dihydro-1,4-benzothiazepin-4(5H)-yl)-6-methylquinolin-4-yl]-N,N-dimethylethane-1,2-diamine] | 0.037 µM
26 | CNc1cc(N2CCS(=O)(=O)c3ccccc3C2)nc2ccc(C)cc12 [Example 3-33, 2-(1,1-Dioxido-2,3-dihydro-1,4-benzothiazepin-4(5H)-yl)-N,6-dimethylquinolin-4-amine trifluoroacetate] | 0.426 µM
27 | Cc1ccc2nc(N3CCS(=O)(=O)c4ccccc4C3)cc(N3C[C@H](O)[C@@H](O)C3)c2c1 [Example 3-34, (3S,4S)-1-[2-(1,1-Dioxido-2,3-dihydro-1,4-benzothiazepin-4(5H)-yl)-6-methylquinolin-4-yl]pyrrolidine-3,4-diol] | 0.085 µM
28 | Cc1ccc2nc(N3CCS(=O)(=O)c4ccccc4C3)cc(NCC3CCCN3)c2c1 (stereo not shown) [Example 3-35, 2-(1,1-Dioxido-2,3-dihydro-1,4-benzothiazepin-4(5H)-yl)-6-methyl-N-(pyrrolidin-2-ylmethyl)quinolin-4-amine] | 0.013 µM
29 | Cc1ccc2nc(N3CCS(=O)(=O)c4ccccc4C3)cc(N3CCCNCC3)c2c1 [Example 3-36, 4-[4-(1,4-Diazepan-1-yl)-6-methylquinolin-2-yl]-2,3,4,5-tetrahydro-1,4-benzothiazepine 1,1-dioxide] | 0.092 µM
30 | CCNCCNc1cc(N2CCS(=O)(=O)c3ccccc3C2)nc2ccc(C)cc12 [Example 3-37, N-[2-(1,1-Dioxido-2,3-dihydro-1,4-benzothiazepin-4(5H)-yl)-6-methylquinolin-4-yl]-N′-ethylethane-1,2-diamine] | 0.017 µM
31 | Cc1ccc2nc(N3CCS(=O)(=O)c4ccccc4C3)cc(NCCO)c2c1 [Example 3-38, 2-{[2-(1,1-Dioxido-2,3-dihydro-1,4-benzothiazepin-4(5H)-yl)-6-methylquinolin-4-yl]amino}ethanol] | 0.0439 µM
32 | Cc1ccc2nc(N3CCS(=O)(=O)c4ccccc4C3)cc(NC3CCNCC3)c2c1 [Example 3-39, 2-(1,1-Dioxido-2,3-dihydro-1,4-benzothiazepin-4(5H)-yl)-6-methyl-N-(piperidin-4-yl)quinolin-4-amine] | 0.03 µM
33 | Cc1ccc2nc(N3CCS(=O)(=O)c4ccccc4C3)cc(NC3CCCNC3)c2c1 (stereo not shown) [Example 3-40, 2-(1,1-Dioxido-2,3-dihydro-1,4-benzothiazepin-4(5H)-yl)-6-methyl-N-(piperidin-3-yl)quinolin-4-amine] | 0.022 µM
34 | Cc1ccc2nc(N3CCS(=O)(=O)c4ccccc4C3)cc(NCC3CCCCN3)c2c1 (stereo not shown) [Example 3-41, 2-(1,1-Dioxido-2,3-dihydro-1,4-benzothiazepin-4(5H)-yl)-6-methyl-N-(piperidin-2-ylmethyl)quinolin-4-amine] | 0.071 µM
